Source: article PMC10523748, “Cytotoxicity, acute and sub-chronic toxicities of the leaves of Bauhinia thonningii (Schumach.) Milne-Redh. (Caesalpiniaceae)” (BMC Complementary Medicine and Therapies, 2023)

Legend:
[1] = tested on: MDA-MB-231-pcDNA breast adenocarcinoma cells; assay: RRA cytotoxicity, MDA-MB-231-pcDNA; conditions: Homo sapiens, 72 h
Experimental: (§1) The sources of the HepG2 hepatocarcinoma [27], U87MG glioblastoma cells and its resistant epidermal growth factor receptor (EGFR) transfected subline, U87MG.ΔEGFR [28], HCT116 p53^+/+ colon adenocarcinoma cells and its resistant knock-out congener, HCT116 p53^−/− [29], MDA-MB-231-pcDNA3 breast adenocarcinoma cells and its multidrug-resistant breast cancer resistance protein (BCRP)-transfected MDA-MB-231-BCRP clone 23 subline [30] have also been described. To compare the activity of samples in HepG2 cells, the AML12 hepatocytes were used [31]. […] These culture media were used as complete media with additional 10% fetal bovine serum and 1% penicillin/streptomycin (Invitrogen, Eggenstein, Germany).
(§2) Botanicals were tested in the concentration range of 0.63–80 µg/mL, the isolated compounds at 0.78—100 µM; the treated cells were incubated for 72 h; the fluorescence was measured at the excitation wavelength of 544 nm and at the emission wavelengths of 590 nm using Infinite M2000 Pro™ plate reader (Tecan, Crailsheim, Germany).

CCRF-CEM leukemia cells = assay: Resazurin reduction assay (RRA) cytotoxicity, CCRF-CEM; conditions: Homo sapiens, 72 h
HCT116 p53^−/− cells = assay: RRA cytotoxicity, HCT116 p53^−/−; conditions: for IC50: Homo sapiens, HCT-116, 72 h; for Degree of resistance: IC50 HCT116 p53^−/− versus HCT116 p53^+/+
Experimental: (§3) The sources of the HepG2 hepatocarcinoma [27], U87MG glioblastoma cells and its resistant epidermal growth factor receptor (EGFR) transfected subline, U87MG.ΔEGFR [28], HCT116 p53^+/+ colon adenocarcinoma cells and its resistant knock-out congener, HCT116 p53^−/− [29], MDA-MB-231-pcDNA3 breast adenocarcinoma cells and its multidrug-resistant breast cancer resistance protein (BCRP)-transfected MDA-MB-231-BCRP clone 23 subline [30] have also been described. […] These culture media were used as complete media with additional 10% fetal bovine serum and 1% penicillin/streptomycin (Invitrogen, Eggenstein, Germany).
as §2

U87MG.ΔEGFR cells = assay: RRA cytotoxicity, U87MG.ΔEGFR; conditions: for IC50: Homo sapiens, 72 h; for Degree of resistance: IC50 U87MG.ΔEGFR versus U87MG
Experimental: as §3, §2

[2] = tested on: HCT116 p53^+/+ colon adenocarcinoma cells; assay: RRA cytotoxicity, HCT116 p53^+/+; conditions: Homo sapiens, HCT-116, 72 h
Experimental: as §1, §2

[3] = tested on: 9 tested cancer cell lines; assay: RRA cytotoxicity, whole panel of cancer cell lines; conditions: Homo sapiens, 72 h, read-out: IC50 against all the investigated cancer cell lines
[4] = tested on: HepG2 hepatocarcinoma cells; assay: RRA cytotoxicity, HepG2; conditions: Homo sapiens, HepG2, 72 h
Experimental: as §1, §2

[5] = tested on: CEM/ADR5000 leukemia cells (P-gp-overexpressing); assay: RRA cytotoxicity, CEM/ADR5000; conditions: for IC50: Homo sapiens, ADR5000, 72 h; for Degree of resistance: IC50 CEM/ADR5000 versus CCRF-CEM
Text: These culture media were used as complete media with additional 10% fetal bovine serum and 1% penicillin/streptomycin (Invitrogen, Eggenstein, Germany).

MDA-MB-231-BCRP cells = assay: RRA cytotoxicity, MDA-MB-231-BCRP; conditions: for IC50: Homo sapiens, MDA-MB-231/BCRP, 72 h; for Degree of resistance: IC50 MDA-MB-231-BCRP versus MDA-MB-231-pcDNA
Experimental: as §3, §2

U87MG glioblastoma cells = assay: RRA cytotoxicity, U87MG; conditions: Homo sapiens, U-87 MG, 72 h
Experimental: as §1, §2

normal AML12 hepatocytes = assay: RRA cytotoxicity, normal AML12 hepatocytes; conditions: for Selectivity index: IC50 in AML12 versus IC50 in HepG2; for IC50: Mus musculus, AML12, 72 h

Row | melting point | SMILES | IC50 [1] | IC50 (CCRF-CEM leukemia cells) | IC50 (HCT116 p53^−/− cells) | Degree of resistance (HCT116 p53^−/− cells) | IC50 (U87MG.ΔEGFR cells) | Degree of resistance (U87MG.ΔEGFR cells) | IC50 [2] | IC50 [3] | IC50 [4] | IC50 [5] | Degree of resistance [5] | IC50 (MDA-MB-231-BCRP cells) | Degree of resistance (MDA-MB-231-BCRP cells) | IC50 (U87MG glioblastoma cells) | Selectivity index (normal AML12 hepatocytes) | IC50 (normal AML12 hepatocytes)
1 | 195 to 197 °C | COc1ccc(-c2oc3cc(O)c(C)c(O)c3c(=O)c2OC)cc1O [Compound 1, 6-C-methylquercetin-3, 4'-dimethyl ether] | 11.3 ± 1.04 µM | 14.2 ± 0.94 µM | 10.8 ± 1.11 µM | 0.51 | 26.6 ± 1.13 µM | 0.98 | 21.2 ± 2.45 µM | < 50 µM | 23.5 ± 0.59 µM | 10.3 ± 0.44 µM | 0.72 | 17 ± 2.05 µM | 1.51 | 27.2 ± 3.07 µM | > 2.13 | > 50 µM
2 | 195 to 197 °C | COc1cc2oc(-c3ccc(O)c(O)c3)c(OC)c(=O)c2c(O)c1C [Compound 2, 6-C-methylquercetin-3,7-dimethyl ether] | 9.84 ± 0.66 µM | 12 ± 1.25 µM | 9.2 ± 0.45 µM | 0.75 | 21.1 ± 2.4 µM | 0.85 | 12.3 ± 1.24 µM | – | 19.6 ± 1.44 µM | 9.11 ± 0.18 µM | 0.76 | 14.3 ± 1.12 µM | 1.45 | 24.8 ± 2.22 µM | – | > 50 µM
3 | 285 to 287 °C | COc1c(C)c(O)c2c(=O)c(OC)c(-c3ccc(O)cc3)oc2c1C [Compound 7, 6,8-C-dimethylkaempferol 3,7-dimethyl ether] | 1.93 ± 0.19 µM | 6.61 ± 0.41 µM | 9.71 ± 0.76 µM | 0.50 | 18 ± 2.21 µM | 0.93 | 19.5 ± 2.05 µM | – | 30.7 ± 1.86 µM | 2.86 ± 0.17 µM | 0.43 | 8.15 ± 0.73 µM | 4.22 | 19.3 ± 1.62 µM | > 1.63 | > 50 µM

Second part, the compound before the results:

Row | SMILES | melting point | IC50 [1] | IC50 (CCRF-CEM leukemia cells) | IC50 (HCT116 p53^−/− cells) | Degree of resistance (HCT116 p53^−/− cells) | IC50 (U87MG.ΔEGFR cells) | Degree of resistance (U87MG.ΔEGFR cells) | IC50 [2] | IC50 [3] | IC50 [4] | IC50 [5] | Degree of resistance [5] | IC50 (MDA-MB-231-BCRP cells) | Degree of resistance (MDA-MB-231-BCRP cells) | IC50 (U87MG glioblastoma cells) | Selectivity index (normal AML12 hepatocytes) | IC50 (normal AML12 hepatocytes)
4 | COc1cc(-c2oc3cc(OC)c(C)c(O)c3c(=O)c2OC)ccc1O [Compound 3, 6-C-methylquercetin 3,7,3'-trimethyl ether] | 185 to 187 °C | 11 ± 0.58 µM | 17.9 ± 1.67 µM | 17.2 ± 0.83 µM | 0.87 | 19.8 ± 0.96 µM | 0.64 | 19.8 ± 0.78 µM | < 50 µM | 23.6 ± 3.23 µM | 10.2 ± 0.3 µM | 0.57 | 13.2 ± 1.48 µM | 1.20 | 31 ± 2.65 µM | – | > 50 µM
5 | C[C@@H]1OC(Oc2c(-c3ccc(O)c(O)c3)oc3cc(O)cc(O)c3c2=O)[C@H](O)[C@H](O)[C@H]1O (stereo partly drawn) [Compound 5, quercetin-3-O-L-rhamnopyranoside] | – | 7.24 ± 0.47 µM | 8.73 ± 0.62 µM | 13.2 ± 1.14 µM | 0.73 | 31.1 ± 1.85 µM | 1.31 | 17.9 ± 1.26 µM | – | 28.3 ± 1.74 µM | 7.21 ± 0.61 µM | 0.83 | 16.8 ± 1.26 µM | 2.32 | 23.7 ± 1.77 µM | > 1.77 | > 50 µM
6 | O=c1c(O[C@@H]2O[C@H](CO)[C@@H](O)[C@H](O)[C@H]2O)c(-c2ccc(O)c(O)c2)oc2cc(O)cc(O)c12 [Compound 6, quercetin-3-O-β-glucopyranoside] | – | 6.99 ± 0.28 µM | 9.12 ± 0.59 µM | 12.5 ± 1.36 µM | 0.57 | 33.5 ± 2.79 µM | 1.75 | 21.8 ± 2.11 µM | – | 21.5 ± 2.25 µM | 7.88 ± 0.58 µM | 0.90 | 12.3 ± 0.97 µM | 1.76 | 19 ± 2.01 µM | above 2 | > 50 µM
